According to patent publication US12679843B2, “Pyrrolopyrimidine amines as complement inhibitors” (BioCryst Pharmaceuticals, Inc., priority 2020, dated 2026):

Molecular target: Factor D (Homo sapiens, UniProt P00746)
Assay: Factor D esterolytic assay (Z-Lys-SBzl thioester substrate, DTNB, 405 nm)
Format: biochemical
Conditions: substrate Z-Lys-SBzl 1.29 mM, 100 mM HEPES, 500 mM NaCl, pH 7.5, 10% DMSO, tested a minimum of three times
How it was run: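 Human Factor D hydrolysis of Z-Lys-SBzl (1.29 mM) monitored at 405 nm via DTNB thiol detection for 600 s, 690 nm background subtracted. Buffer 100 mM HEPES, 500 mM NaCl, pH 7.5, 10% DMSO; substrate added immediately or after room-temperature preincubation. IC50 from percent inhibition of rate, at least three tests.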

Sequence of Factor D (P00746 26-253): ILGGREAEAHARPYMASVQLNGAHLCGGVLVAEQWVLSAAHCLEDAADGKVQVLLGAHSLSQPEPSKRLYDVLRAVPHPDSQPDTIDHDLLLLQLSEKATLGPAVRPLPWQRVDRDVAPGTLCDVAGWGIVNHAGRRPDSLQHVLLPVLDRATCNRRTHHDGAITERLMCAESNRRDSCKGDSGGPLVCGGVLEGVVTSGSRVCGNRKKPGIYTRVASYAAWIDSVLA

Structure (SMILES) | IC50 [µM]
CC(C)(C)CCNC(=O)[C@@H]1C[C@H]2C[C@H]2N1C(=O)Cn1cnc2c(N)ncnc21 [Compound 95c, (1R,3S,5R)-2-(2-(6-amino-9H-purin-9-yl)acetyl)-N-(3,3-dimethylbutyl)-2-azabicyclo[3.1.0]hexane-3-carboxamide] | > 1
CN(C)c1nc(N)c2ncn(CC(=O)N3[C@@H]4C[C@@H]4C[C@H]3C(=O)NCc3cccc(Cl)c3F)c2n1 [Compound 96e, (1R,3S,5R)-2-(2-(6-amino-2-(dimethylamino)-9H-purin-9-yl)acetyl)-N-(3-chloro-2-fluorobenzyl)-2-azabicyclo[3.1.0]hexane-3-carboxamide] | > 1
CC1(C)CCCC(NC(=O)[C@@H]2C[C@H]3C[C@H]3N2C(=O)Cn2cnc3c(N)ncnc32)C1 (stereo partly drawn) [Compound 97b, (1R,3S,5R)-2-(2-(6-amino-9H-purin-9-yl)acetyl)-N-(3,3-dimethylcyclohexyl)-2-azabicyclo[3.1.0]hexane-3-carboxamide] | > 1
Nc1ncnc2c1ncn2CC(=O)N1[C@@H]2C[C@@H]2C[C@H]1C(=O)NCCOC(F)(F)F [Compound 99b, (1R,3S,5R)-2-(2-(6-amino-9H-purin-9-yl)acetyl)-N-(2-(trifluoromethoxy)ethyl)-2-azabicyclo[3.1.0]hexane-3-carboxamide] | > 1
CC1CC(CNC(=O)[C@@H]2C[C@H]3C[C@H]3N2C(=O)Cn2cnc3c(N)ncnc32)C1 (stereo partly drawn) [Compound 100b, (1R,3S,5R)-2-(2-(6-amino-9H-purin-9-yl)acetyl)-N-((3-methylcyclobutyl)methyl)-2-azabicyclo[3.1.0]hexane-3-carboxamide] | > 1
Nc1ncnc2c1ncn2CC(=O)N1[C@@H]2C[C@@H]2C[C@H]1C(=O)NCC1CC1(Cl)Cl (stereo partly drawn) [Compound 103b, (1R,3S,5R)-2-(2-(6-amino-9H-purin-9-yl)acetyl)-N-((2,2-dichlorocyclopropyl)methyl)-2-azabicyclo[3.1.0]hexane-3-carboxamide] | 0.1 to 1
Nc1ncnc2c1ncn2CC(=O)N1C[C@H](F)C[C@H]1C(=O)NCc1cccc(Cl)c1F [Compound 104a, (2S,4R)-1-(2-(6-amino-9H-purin-9-yl)acetyl)-N-(3-chloro-2-fluorobenzyl)-4-fluoropyrrolidine-2-carboxamide] | < 0.1
Nc1ncnc2c1ncn2CC(=O)N1CCS[C@H]1C(=O)NCc1cccc(Cl)c1F [Compound 105b, (S)-3-(2-(6-amino-9H-purin-9-yl)acetyl)-N-(3-chloro-2-fluorobenzyl)thiazolidine-2-carboxamide] | 0.1 to 1
Nc1ncnc2c1ncn2CC(=O)N1[C@@H]2C[C@@H]2C[C@H]1C(=O)Nc1cccc(OC(F)(F)F)c1 [Compound 107b, (1R,3S,5R)-2-(2-(6-amino-9H-purin-9-yl)acetyl)-N-(3-(trifluoromethoxy)phenyl)-2-azabicyclo[3.1.0]hexane-3-carboxamide] | > 1
COc1cccc(NC(=O)[C@@H]2C[C@H]3C[C@H]3N2C(=O)Cn2cnc3c(N)ncnc32)c1F [Compound 108b, (1R,3S,5R)-2-(2-(6-amino-9H-purin-9-yl)acetyl)-N-(2-fluoro-3-methoxyphenyl)-2-azabicyclo[3.1.0]hexane-3-carboxamide] | > 1
Nc1ncnc2c1ncn2CC(=O)N1[C@H](C(=O)NCc2cccc(Cl)c2F)C[C@@H]2C[C@@H]21 [Compound 109e, (1S,3S,5S)-2-(2-(6-amino-9H-purin-9-yl)acetyl)-N-(3-chloro-2-fluorobenzyl)-2-azabicyclo[3.1.0]hexane-3-carboxamide] | 0.1 to 1
Nc1ncnc2c1nc(Br)n2CC(=O)N1C[C@H](F)C[C@H]1C(=O)NCc1cccc(Cl)c1F [Compound 110d, (2S,4R)-1-(2-(6-amino-8-bromo-9H-purin-9-yl)acetyl)-N-(3-chloro-2-fluorobenzyl)-4-fluoropyrrolidine-2-carboxamide] | > 1
Nc1ncnc2c1c(Br)cn2CC(=O)N1C[C@H](F)C[C@H]1C(=O)NCc1cccc(Cl)c1F [Compound 116b, (2S,4R)-1-(2-(4-amino-5-bromo-7H-pyrrolo[2,3-d]pyrimidin-7-yl)acetyl)-N-(3-chloro-2-fluorobenzyl)-4-fluoropyrrolidine-2-carboxamide] | 0.1 to 1
Nc1ncnc2c1ncn2CC(=O)N1CC2(CC2)C[C@H]1C(=O)NCc1cccc(Cl)c1F [Compound 120c, (S)-5-(2-(6-amino-9H-purin-9-yl)acetyl)-N-(3-chloro-2-fluorobenzyl)-5-azaspiro[2.4]heptane-6-carboxamide] | > 1
C[C@@]1(F)C[C@@H](C(=O)NCc2cccc(Cl)c2F)N(C(=O)Cn2cnc3c(N)ncnc32)C1 [Compound 122c, (2S,4R)-1-(2-(6-amino-9H-purin-9-yl)acetyl)-N-(3-chloro-2-fluorobenzyl)-4-fluoro-4-methylpyrrolidine-2-carboxamide] | 0.1 to 1
NCCNc1ncnc2c1ncn2CC(=O)N1C[C@H](F)C[C@H]1C(=O)NCc1cccc(Cl)c1F [Compound 123g, (2S,4R)-1-(2-(6-((2-aminoethyl)amino)-9H-purin-9-yl)acetyl)-N-(3-chloro-2-fluorobenzyl)-4-fluoropyrrolidine-2-carboxamide] | > 1
Nc1ncnc2c1ncn2CC(=O)N1[C@@H]2CC[C@@H](C2)[C@H]1C(=O)NCc1cccc(Cl)c1F [Compound 124b, (1R,3S,4S)-2-(2-(6-amino-9H-purin-9-yl)acetyl)-N-(3-chloro-2-fluorobenzyl)-2-azabicyclo[2.2.1]heptane-3-carboxamide] | > 1

The next lines start with the values.

IC50 [µM] | Structure (SMILES)
> 1 | Nc1ncnc2c1ncn2CC(=O)N1[C@@H]2C[C@@H]2C[C@H]1C(=O)OCc1ccccc1 [Compound 94b, (1R,3S,5R)-benzyl 2-(2-(6-amino-9H-purin-9-yl)acetyl)-2-azabicyclo[3.1.0]hexane-3-carboxylate]
0.1 to 1 | Nc1ncnc2c1ncn2CC(=O)N1[C@@H]2C[C@@H]2C[C@H]1C(=O)N[C@@H]1C[C@H]1c1ccccc1Cl [Compound 98b, (1R,3S,5R)-2-(2-(6-amino-9H-purin-9-yl)acetyl)-N-((1R,2S)-2-(2-chlorophenyl)cyclopropyl)-2-azabicyclo[3.1.0]hexane-3-carboxamide]
0.1 to 1 | Nc1ncnc2c1ncn2CC(=O)N1[C@@H]2C[C@@H]2C[C@H]1C(=O)NCc1ccccc1 [Compound 101b, (1R,3S,5R)-2-(2-(6-amino-9H-purin-9-yl)acetyl)-N-benzyl-2-azabicyclo[3.1.0]hexane-3-carboxamide]
0.1 to 1 | Nc1ncnc2c1ncn2CC(=O)N1[C@@H]2C[C@@H]2C[C@H]1C(=O)NC1CCCC(Cl)(Cl)C1 (stereo partly drawn) [Compound 102b, (1R,3S,5R)-2-(2-(6-amino-9H-purin-9-yl)acetyl)-N-(3,3-dichlorocyclohexyl)-2-azabicyclo[3.1.0]hexane-3-carboxamide]
0.1 to 1 | CC(C)=C(F)CNC(=O)[C@@H]1C[C@H]2C[C@H]2N1C(=O)Cn1cnc2c(N)ncnc21 [Compound 111b, (1R,3S,5R)-2-(2-(6-amino-9H-purin-9-yl)acetyl)-N-(2-fluoro-3-methylbut-2-en-1-yl)-2-azabicyclo[3.1.0]hexane-3-carboxamide]
< 0.1 | Nc1ncnc2c1ncn2CC(=O)N1[C@@H]2C[C@@H]2C[C@H]1C(=O)Nc1cncc(Br)n1 [Compound 112b, (1R,3S,5R)-2-(2-(6-amino-9H-purin-9-yl)acetyl)-N-(6-bromopyrazin-2-yl)-2-azabicyclo[3.1.0]hexane-3-carboxamide]
0.1 to 1 | Cc1ccc(Br)nc1NC(=O)[C@@H]1C[C@@]2(C)C[C@H]2N1C(=O)Cn1cnc2c(N)ncnc21 [Compound 113a, (1R,3S,5R)-2-(2-(6-amino-9H-purin-9-yl)acetyl)-N-(6-bromo-3-methylpyridin-2-yl)-5-methyl-2-azabicyclo[3.1.0]hexane-3-carboxamide]
< 0.1 | Nc1ncnc2c1c(-c1cccnc1)cn2CC(=O)N1C[C@H](F)C[C@H]1C(=O)NCc1cccc(Cl)c1F [Compound 114f, (2S,4R)-1-(2-(4-amino-5-(pyridin-3-yl)-7H-pyrrolo[2,3-d]pyrimidin-7-yl)acetyl)-N-(3-chloro-2-fluorobenzyl)-4-fluoropyrrolidine-2-carboxamide]
0.1 to 1 | NCc1cccc(-c2cn(CC(=O)N3C[C@H](F)C[C@H]3C(=O)NCc3cccc(Cl)c3F)c3ncnc(N)c23)c1 [Compound 115e, (2S,4R)-1-(2-(4-amino-5-(3-(aminomethyl)phenyl)-7H-pyrrolo[2,3-d]pyrimidin-7-yl)acetyl)-N-(3-chloro-2-fluorobenzyl)-4-fluoropyrrolidine-2-carboxamide]
0.1 to 1 | Cc1ncc(-c2cn(CC(=O)N3C[C@H](F)C[C@H]3C(=O)NCc3cccc(Cl)c3F)c3ncnc(N)c23)cn1 [Compound 117d, (2S,4R)-1-(2-(4-amino-5-(2-methylpyrimidin-5-yl)-7H-pyrrolo[2,3-d]pyrimidin-7-yl)acetyl)-N-(3-chloro-2-fluorobenzyl)-4-fluoropyrrolidine-2-carboxamide]
> 1 | Cc1ncc(-c2cn(CC(=O)N3C[C@H](F)C[C@H]3C(=O)Nc3nc(Br)ccc3C)c3ncnc(N)c23)cn1 [Compound 118a, (2S,4R)-1-(2-(4-amino-5-(2-methylpyrimidin-5-yl)-7H-pyrrolo[2,3-d]pyrimidin-7-yl)acetyl)-N-(6-bromo-3-methylpyridin-2-yl)-4-fluoropyrrolidine-2-carboxamide]
0.1 to 1 | Nc1ncnc2c1ncn2CC(=O)N1CCC[C@H]1C(=O)NCc1cccc(Cl)c1F [Compound 119a, (S)-1-(2-(6-amino-9H-purin-9-yl)acetyl)-N-(3-chloro-2-fluorobenzyl)pyrrolidine-2-carboxamide]
> 1 | C[C@@H]1C[C@@H](C(=O)NCc2cccc(Cl)c2F)N(C(=O)Cn2cnc3c(N)ncnc32)C1 [Compound 121d, (2S,4R)-1-(2-(6-amino-9H-purin-9-yl)acetyl)-N-(3-chloro-2-fluorobenzyl)-4-methylpyrrolidine-2-carboxamide]
